The values below come from patent publication US20230096028A1, “BICYCLIC HETEROCYCLYL COMPOUNDS AND USES THEREOF” (Revolution Medicines, Inc., priority 2019, published 2023).

The target of assay [1] is T1, SOS1 catalytic domain (residues 564-1049) (Homo sapiens, UniProt Q07889).
T1 sequence (Q07889 564-1049): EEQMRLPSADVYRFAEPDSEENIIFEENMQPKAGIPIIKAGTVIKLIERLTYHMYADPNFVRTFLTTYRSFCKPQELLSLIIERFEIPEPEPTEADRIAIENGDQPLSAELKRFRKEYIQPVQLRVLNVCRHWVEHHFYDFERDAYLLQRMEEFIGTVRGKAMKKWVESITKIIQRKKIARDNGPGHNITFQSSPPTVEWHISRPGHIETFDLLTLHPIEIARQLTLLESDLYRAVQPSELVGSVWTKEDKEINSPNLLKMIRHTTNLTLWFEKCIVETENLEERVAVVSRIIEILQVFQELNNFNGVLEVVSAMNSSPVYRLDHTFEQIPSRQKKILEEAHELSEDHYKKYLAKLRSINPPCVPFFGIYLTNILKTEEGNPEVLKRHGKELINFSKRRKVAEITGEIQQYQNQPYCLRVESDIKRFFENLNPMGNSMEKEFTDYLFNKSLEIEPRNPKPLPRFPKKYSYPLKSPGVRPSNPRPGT
Briefly: Potency Assay: binding affinity to SOS1 using Surface Plasmon Resonance (SPR). The arrangement: SOS1 catalytic domain (residues 564-1049) immobilized on a sensor chip. Conditions: immobilized SOS1 catalytic domain (residues 564-1049), read-out: SOS1 SPR Equilibrium Kd. In short, it runs like this:
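Kd was obtained by plotting binding response, taken just before association ended, versus compound concentration on a Biacore 8K. Compounds flowed at 50 μL/min over streptavidin-captured avi-SOS1 catalytic domain (~6000 RU), followed by buffer dissociation; HEPES 0.01 M/NaCl 0.15 M/0.05% P20 buffer, double-referenced.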

The target in assay [2] is T1, SOS1 catalytic domain (residues 564-1049). Briefly: Mode of Action Assay: inhibition of SOS1 nucleotide exchange activity (SOS1 TR-FRET IC50 Assay). In general terms: In TR-FRET formats the signal depends on donor and acceptor labels being close together.
Assay [3] relates to PC-9 cells (EGFR Ex19Del). Briefly: Potency Assay: pERK (SOS1 pERK IC50 Assay, AlphaLISA SureFire Ultra p-ERK1/2). The class given is cell-based. Particulars: Homo sapiens, read-out: SOS1 pERK IC50. In short, it runs like this:
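Cellular pERK1/2 by AlphaLISA SureFire Ultra after 1 h compound exposure (37° C., highest concentration 10 μM, 3-fold steps, duplicates) of EGFR Ex19Del PC-9 cells seeded the day before. A 4-parameter fit of signal versus log concentration gives IC50.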

Setting [4] is: PC-9 cells (EGFR Ex19Del), 1 hour incubation, AlphaLISA p-ERK1/2.

The structures appear in SMILES notation. Read-outs that look alike come from different tables or passages of the source.

Regarding `C[C@@H](Nc1nc(Cl)nc2c1CN(C(=O)c1ncccc1C(F)(F)F)C2)c1cc(N)cc(C(F)(F)F)c1` [Example 86], in assay [1], the Kd – broadly, the equilibrium constant for the complex coming apart – is below 400 nM. For the same compound, the IC50 in assay [2] and in assay [3] (setting [4]) was below 1000 nM each time.
For the compound `C[C@@H](Nc1nc(Cl)nc2c1CN(C(=O)N1C[C@H]3CNCC[C@H]3C1)C2)c1cccc(C(F)(F)F)c1` [Example 378], in assay [1], the Kd is below 400 nM. In addition, the IC50 (in general, the midpoint of a concentration-inhibition curve) in assay [2] is below 1000 nM; in assay [3] (setting [4]) it was above 1000 nM.
For the compound `CNC1(C(=O)N2Cc3nc(Cl)nc(N[C@H](C)c4cccc(C(F)F)c4F)c3C2)CCOC1` (stereo partly drawn) [Example 334], the Kd in assay [1] was below 400 nM. Besides, the IC50 in assay [2] and in assay [3] (setting [4]) was below 1000 nM each time.
Consider `C[C@@H](Nc1nc(Cl)nc2c1CN(C(=O)N1CCNC(C(F)(F)F)C1)C2)c1cccc(C(F)(F)F)c1` (stereo partly drawn) [Example 363], for which the dissociation constant (Kd) in assay [1] was below 400 nM. Further, the IC50 in assay [2] and in assay [3] (setting [4]) was below 1000 nM throughout.
For `Cc1nc2c(c(N[C@H](C)c3cc(N)cc(C(F)(F)F)c3)n1)CN(C(=O)OC1CCOCC1)C2` [Example 118, oxan-4-yl 4-{[(1R)-1-[3-amino-5-(trifluoromethyl)phenyl]ethyl]amino}-2-methyl-5H,6H,7H-pyrrolo[3,4-d]pyrimidine-6-carboxylate], the Kd in assay [1] is above 400 nM. Moreover, the IC50 in assay [2] is below 1000 nM; in assay [3] (PC-9, 1 h) it was below 1000 nM.
As to `C[C@@H](Nc1nc(Cl)nc2c1CN(C(=O)C1CCN(C)C1)C2)c1cccc(C(F)F)c1F` (stereo partly drawn) [Example 319], in assay [1], the Kd was below 400 nM. Moreover, the IC50 in assay [2] and in assay [3] (setting [4]) was below 1000 nM throughout.
In the case of `C[C@@H](Nc1nc(Cl)nc2c1CN(C(=O)N1CCOc3ncccc31)C2)c1cc(N)cc(C(F)(F)F)c1` [Example 365], the Kd in assay [1] is below 400 nM. In addition, the IC50 in assay [2] and in assay [3] (setting [4]) was below 1000 nM in each case.
Take `C[C@@H](Nc1nc(Cl)nc2c1CN(C(=O)C1(N)COC1)C2)c1cccc(C(F)F)c1F` [Example 285]: the Kd in assay [1] is below 400 nM. Moreover, the IC50 in assay [2] and in assay [3] (setting [4]) was below 1000 nM throughout.
Consider `C[C@@H](Nc1nc(Cl)nc2c1CN(C(=O)c1cccc(OC3CCOCC3)n1)C2)c1cc(N)cc(C(F)(F)F)c1` [Example 83], for which the Kd in assay [1] is above 400 nM. Moreover, the results for the IC50 in assay [2] and in assay [3] (setting [4]) were above 1000 nM and below 1000 nM, respectively.
In the case of `C[C@@H](Nc1nc(Cl)nc2c1CN(C(=O)N1CCCNCC1)C2)c1cccc(C(F)(F)F)c1` [Example 377], in assay [1], the dissociation constant (Kd) is below 400 nM. Further, the IC50 in assay [2] and in assay [3] (setting [4]) was below 1000 nM throughout.
Take `C[C@@H](Nc1nc(Cl)nc2c1CN(C(=O)[C@@]13COC[C@@H]1CN(S(C)(=O)=O)C3)CC2)c1cc(N)cc(C(F)(F)F)c1` [Example 222]: the Kd in assay [1] was above 400 nM. Besides, the IC50 in assay [2] and in assay [3] (setting [4]) was above 1000 nM in each case.
On to `C[C@@H](Nc1nc(Cl)nc2c1CN(C(=O)N1CC3CCC(C1)N3C)C2)c1cccc(C(F)F)c1F` [Example 429], for which the Kd in assay [1] was below 400 nM. The half-maximal inhibitory concentration (IC50) in assay [2] and in assay [3] (setting [4]) was below 1000 nM each time.
With `C[C@@H](Nc1nc(Cl)nc2c1CN(C(=O)N1C[C@H]3CNC[C@H]3C1)C2)c1cccc(C(F)(F)F)c1` [Example 380], the Kd in assay [1] is below 400 nM. Further, the IC50 in assay [2] is below 1000 nM; in assay [3] (setting [4]) it was above 1000 nM.
Consider `C[C@@H](Nc1nc(CO)nc2c1CN(C(=O)N1CCOCC1)C2)c1cccc(C(F)F)c1F` [Example 348, (R)-(4-((1-(3-(difluoromethyl)-2-fluorophenyl)ethyl)amino)-2-(hydroxymethyl)-5,7-dihydro-6H-pyrrolo[3,4-d]pyrimidin-6-yl)(morpholino)methanone], for which the Kd in assay [1] is below 400 nM. Further, the IC50 is below 1000 nM in assay [2] and above 1000 nM in assay [3] (setting [4]).
Take `C[C@@H](Nc1nc(Cl)nc2c1CN(C(=O)c1cc(N3CCOCC3)ccn1)CC2)c1cc(N)cc(C(F)(F)F)c1` [Example 238]: the Kd in assay [1] is above 400 nM. The IC50 in assay [2] and in assay [3] (setting [4]) was above 1000 nM throughout.
In the case of `C[C@@H](Nc1nc(Cl)nc2c1CN(C(=O)[C@H]1C[C@@H](O)C1)C2)c1cc(N)cc(C(F)(F)F)c1` [Example 260], the Kd in assay [1] was below 400 nM. Besides, the IC50 in assay [2] and in assay [3] (setting [4]) was below 1000 nM throughout.
For `C[C@@H](Nc1nc(Cl)nc2c1CN(C(=O)N1CCOCC1)C2)c1cccc(C(F)(F)C2COCCN2)c1` (stereo partly drawn) [Example 538, (2-chloro-4-(((1R)-1-(3-(difluoro(morpholin-3-yl)methyl)phenyl)ethyl)amino)-5,7-dihydro-6H-pyrrolo[3,4-d]pyrimidin-6-yl)(morpholino)methanone], the equilibrium dissociation constant (Kd) in assay [1] is below 400 nM. The figures for the IC50 in assay [2] and in assay [3] (setting [4]) were below 1000 nM and above 1000 nM, respectively.
In the case of `C[C@@H](Nc1nc(Cl)nc2c1CN(C(=O)C1COCCN(C)C1)C2)c1cccc(C(F)F)c1F` (stereo partly drawn) [Example 320], the Kd in assay [1] is below 400 nM. Moreover, the IC50 in assay [2] and in assay [3] (setting [4]) was below 1000 nM throughout.
`C[C@@H](Nc1nc(Cl)nc2c1CN(C(=O)N1CC3CC1CN3C1COC1)C2)c1cccc(C(F)F)c1F` (stereo partly drawn) [Example 421]: in assay [1], the Kd was below 400 nM. The IC50 in assay [2] and in assay [3] (setting [4]) was below 1000 nM throughout.
For `C[C@@H](Nc1nc(Cl)nc2c1C[C@@H](N1CCOCC1)CC2)c1cccc(C(F)F)c1F` [Example 440], in assay [1], the Kd is below 400 nM. Also, the IC50 in assay [2] and in assay [3] (setting [4]) was below 1000 nM throughout.
In the case of `C[C@@H](Nc1nc(Cl)nc2c1CN(C(=O)CN1CCOCC1)C2)c1cccc(C(F)F)c1F` [Example 292], the Kd in assay [1] is below 400 nM. Moreover, the IC50 in assay [2] and in assay [3] (setting [4]) was below 1000 nM in each case.
As for `C[C@@H](Nc1nc(Cl)nc2c1CN(C(=O)N1C[C@H]3C[C@@H]1CN3)C2)c1cccc(C(F)F)c1F` [Example 406], in assay [1], the Kd was below 400 nM. Further, the IC50 in assay [2] and in assay [3] (setting [4]) was below 1000 nM each time.
In the case of `C[C@@H](Nc1nc(Cl)nc2c1CN(C(=O)C13COC(C1)C3)CC2)c1cc(N)cc(C(F)(F)F)c1` [Example 212], in assay [1], the Kd was above 400 nM. Besides, the IC50 in assay [2] was above 1000 nM; in assay [3] (setting [4]), below 1000 nM.
With `C[C@@H](Nc1nc(I)nc2c1CN(C(=O)N1CCOCC1)C2)c1cc(N)cc(C(F)(F)F)c1` [Example 134, N-[(1R)-1-[3-amino-5-(trifluoromethyl)phenyl]ethyl]-2-iodo-6-(morpholine-4-carbonyl)-5H,6H,7H-pyrrolo[3,4-d]pyrimidin-4-amine], in assay [1], the Kd was below 400 nM. Moreover, the IC50 in assay [2] and in assay [3] (setting [4]) was below 1000 nM throughout.
Take `C[C@@H](Nc1nc(Cl)nc2c1CN(C(=O)[C@@H]1C[C@H]1C#N)CC2)c1cc(N)cc(C(F)(F)F)c1` [Example 223]: the Kd in assay [1] was below 400 nM. Further, the IC50 in assay [2] and in assay [3] (setting [4]) was below 1000 nM in each case.
For `COC1(C(=O)N2Cc3nc(Cl)nc(N[C@H](C)c4cccc(C(F)(F)CO)c4)c3C2)COC1` [Example 241], in assay [1], the Kd was below 400 nM. Also, the 50% inhibitory concentration (IC50) in assay [2] and in assay [3] (setting [4]) was below 1000 nM in each case.
As for `C[C@@H](Nc1nc(Cl)nc2c1CN(C(=O)CC1COCCN1)C2)c1cccc(C(F)F)c1F` (stereo partly drawn) [Example 291], the Kd in assay [1] was above 400 nM. For the same compound, the IC50 in assay [2] and in assay [3] (setting [4]) was below 1000 nM throughout.
Regarding `C[C@@H](Nc1nc(Cl)nc2c1CN(C(=O)N1CC3CCC1CN3C)C2)c1cccc(C(F)F)c1F` (stereo partly drawn) [Example 415], the dissociation constant Kd in assay [1] is below 400 nM. Further, the half-inhibitory concentration (IC50) in assay [2] and in assay [3] (setting [4]) was below 1000 nM throughout.
